# In patent publication US20020111314A1, “Novel stimulation of gene expression and protein synthesis of heat shock protein 72/73 (Hsp 70)” (The Trustees of Columbia University, priority 1995, published 2002):
# Square brackets hold non-standard residues; d marks the D form. Peptide text beside a SMILES is read from it. Nle = CCCC[C@H](N)C(=O)O
# How the values were obtained:
# Hsp70 [1] = experiment: Hsp70 induction in Chinese hamster ovary (CHO) cells; type: cell-based; conditions: data not shown
# Hsp70 [2] = experiment: Hsp70 induction in human microvascular endothelial cell line; type: cell-based; conditions: 4 hours ALLN 40 μg/ml, 30 min labeling with [3H]-leucine
# Hsp70 [3] = experiment: Hsp70 induction in HepG2 cells ([3H]-leucine labeling, denaturing immunoprecipitation); type: cell-based, human; conditions: for Hsp70 levels after removal of ALLN: 4-hour preincubation
# Procedure: HepG2 cells were grown up to 95% confluence and then preincubated for 4 hours in a 37° C. incubator with serum-free minimum essential medium (MEM), followed by radiolabeling with 3H-leucine (150 μCi/ml) dissolved in serum-free, leucine-free medium. Preincubation and labeling medium each contained 1.5% bovine serum albumin (BSA) plus different concentrations of ALLN as indicated. After labeling, cells were collected and lysed, and Hsp70 was immunoprecipitated under denaturing conditions as described under Experimental Details. Cell lysates containing an equal amount of TCA-insoluble radioactivity were used for immunoprecipitation. (A): The immunoprecipitates were analyzed by sodium dodecyl sulfate-polyacryamide gel electrophoresis (SDS-PAGE) and fluorography. Numbers on the left-hand side denote molecular markers. (B): The Hsp70 radioactivity was quantitated by scintillation counting and plotted. All the values were presented as means±SD from three individual culture dishes.
# FIGS. 3A-3B: Effects of the other protease inhibitors on Hsp70 biosynthesis in HepG2 cells. HepG2 cells were preincubated in serum-free MEM containing either 1.5% BSA alone (Control), or BSA plus 40 μg/ml of ALLN, 40 μg/ml of ALLM, 50 μg/ml of leupeptin, 50 μg/ml of pepstatin A, 25 μg/ml of E-64d, 1 mM of phenylmethylsulfonyl fluoride (PMSF), 100 KIU/ml of apotinin, 1 mM of Benzamidine (Benz), 200 μM of calpain inhibitor peptide (CIP). Radiolabeling (in the presence of protease inhibitors), lysis and immunoprecipitation were performed as described in FIG. 1. The Hsp70 specific radioactivity (A) and the amount of total incorporated radioactivity (TCA-cpm) (B) were compared with each other. All the values were presented as the mean±SD from three individual culture dishes.
# FIGS. 9A-9B: Effects of proteasome inhibitors on Hsp70 induction. HepG2 cells were preincubated with the proteasome inhibitors MG132 at a final concentration of either 10 μM or 30 μM (A), or lactacystin at 10 μM (B) for 4 hours under conditions described in FIG. 3. These cells were then subjected to radiolabeling (30 min), cell lysis, and immunoprecipitation with anti-Hsp70 antibody. The experiments with MG132 (A) were repeated twice; the effects of lactacystin (B) were studied in triplicate culture dishes.
# ALLN, leupeptin, mouse anti-human Hsp72/73 monoclonal antibody, a secondary antibody conjugated with horseradish peroxidase (HRP) (goat anti-rabbit immunoglubin G [IgG]), and rabbit anti-rat IgG antibody were from Boehringer Mannheim Co. Anti-Human Hsp25 and anti-human Hsp60 monoclonal antibodies, ALLM, Calpain inhibitor peptide (CIP), dimethyl sulfoxide (DMSO) and dithiothreitol (DTT) were from Sigma. Human Hsp70 oligonucleotide probe was from Oncogene Science. This oligonucleotide was ^32P labeled at the 5′-end by T4 Kinase, which was from Biolabs. ^32P was from ICN Pharmaceutical Inc. L-[4,5-^3H] leucine was from Amersham Co. Anti-human Bip (immunoglobulin heavy chain binding protein, also called Grp78), anti-human Hsp27, anti-human Hsp60, and anti-human Hsp90 monoclonal antibodies were from Stress Genes. Anti-human Hsp86 and Hsp104 antibodies were from Affinity Bioreagent Inc. Nitrocellular transfer and immobilization membranes were from Schleicher & Schuell, Keene, N.H. RNA extraction kits were from Biotect, Tex. The polyclonal antibody against the human HSF1 protein was a generous gift from Dr. Carl Wu of the National Institute of Health (Rabindran, et al., 1993). Ethylene glycol bis(succunimidylsuccinate) (EGS) was from Pierce. Cbz-leucyl-leucyl-leucinal (MG132) was a gift of Dr. H. Ploegh at the Massachusetts Institute of Technology. All the other tissue culture supplies and chemicals were obtained from supplies as previously described (Dixon, et al., 1991). The HepG2 cell culture conditions were maintained as previously described (Dixon, et al., 1991).
smiles,measurement,setting,value
"CCCC[C@@H](C=O)NC(=O)[C@H](CC(C)C)NC(=O)[C@H](CC(C)C)NC(C)=O [ALLN, N-acetyl-leucyl-leucyl-norleucinal] (Ac-Leu-Leu-[Nle]-aldehyde)",cellular Hsp70 levels,Hsp70 [1],increasing cellular Hsp70 levels
same,increment of Hsp70 level,Hsp70 [2],35 fold
same,Hsp70 levels after removal of ALLN,"Hsp70 [3]; HepG2, end of a 2-hour wash",25 fold
same,Hsp70 levels after removal of ALLN,"Hsp70 [3]; HepG2, end of a 6-hour wash",8 fold
same,Hsp70 levels after removal of ALLN,"Hsp70 [3]; HepG2, end of an 8-hour wash",4 fold
same,increment of newly synthesized Hsp70 levels compared with untreated cells,"Hsp70 [3]; HepG2, 30 min labeling, ALLN 40 μg/ml, data from several experiments",~30 fold
same,response of cellular Hsp70 levels to ALLN dose,"Hsp70 [3]; HepG2, 4 hours, different doses (FIG. 1)",dose-dependent response
same,induction of Hsp70 by protease inhibitors (FIG. 3A),"Hsp70 [3]; HepG2, 4 h pre-treatment, ALLN 40, ALLM 40, leupeptin 50, pepstatin A 50, E-64d 25 μg/ml, PMSF 1 mM, aprotinin 100 KIU/ml",significantly induce
same,increase in rate of incorporation of [3H]-leucine into Hsp70,"Hsp70 [3]; HepG2, 4 h preincubation with ALLN 40 μg/ml, labeling 10-60 min, every time point",about 25 fold
same,Hsp70 levels induced,"Hsp70 [3]; HepG2, low concentration of ALLN 10 μg/ml, 4 h pre-treatment",more than 9 fold
same,induction of Hsp70 levels above baseline,Hsp70 [3]; HepG2 cells and human endothelial cells,up to 30 fold
